The values below are quoted from earlier work in US20210000933A1, “TUMOR VACCINE” (CELL-MEDICINE, INC., priority 2019, published 2021).

Series [1] concerns newly diagnosed glioblastoma. Particulars: bevacizumab used together with the standard therapy.
Setting [2] is: 22 brain tumor cases, PDT then standard therapy.
[3] abbreviates: newly diagnosed glioblastoma cases (13 cases).

Read-outs that look alike come from different tables or passages of the source.

As to `C=Cc1c(C)c2cc3nc(c(CC(=O)N[C@@H](CC(=O)O)C(=O)O)c4[nH]c(cc5nc(cc1[nH]2)C(C)=C5CC)c(C)c4C(=O)O)[C@@H](CCC(=O)O)[C@@H]3C` [talaporphin sodium, talaporfin sodium], in the series on brain tumor (22 brain tumor cases), the Side reactions result was “observed for only four cases, and all of them were mild”. Moreover, in the series on brain tumor (setting [2]), the “6-month progression-free survival rate” value is given as 91% and the “12-month postoperative overall survival rate” value is given as 95.5%. Also, in the series with brain tumor (glioblastoma cases), the mOS is on record as 24.8 months and the mPFS is reported as 12.0 months. In addition, in the series with brain tumor (setting [3]), the “6-month progression-free survival rate” value is 100% and the “12-month postoperative overall survival rate” value is 100%.
For the compound “bevacizumab: antibody drug having a tumor neovascularization inhibitory effect”, in series [1], the mOS is reported as 15.7 to 16.8 months and the mPFS is given as 10.6 to 10.7 months.
